Biological target: T1, Acel0264 (Acidothermus cellulolyticus, UniProt A0LRH8)
T1 sequence (A0LRH8 1-356): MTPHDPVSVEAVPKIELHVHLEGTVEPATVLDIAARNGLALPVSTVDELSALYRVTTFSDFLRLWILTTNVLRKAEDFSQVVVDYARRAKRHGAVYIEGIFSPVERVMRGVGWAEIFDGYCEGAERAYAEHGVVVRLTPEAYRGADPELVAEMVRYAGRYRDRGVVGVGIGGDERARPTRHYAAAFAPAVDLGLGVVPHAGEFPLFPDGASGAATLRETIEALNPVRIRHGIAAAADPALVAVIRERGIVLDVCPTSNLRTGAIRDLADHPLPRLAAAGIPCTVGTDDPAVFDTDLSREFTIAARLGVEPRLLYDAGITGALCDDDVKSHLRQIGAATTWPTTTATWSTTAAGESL
Assay: absorbance decrease at […] nm
Assay type: biochemical
Conditions: read-out: Acel0264 / Km; pH 7.5, 30 °C

**Q.** For `CCNC(=O)[C@H]1O[C@@H](n2cnc3c(N)ncnc32)[C@H](O)[C@@H]1O` [NECA, 1-(6-Amino-9H-purin-9-yl)-1-deoxy-N-ethyl-β-D-ribofuranuronamide], which Km is on record?
**A.** Its Km is 61 µM.

— paper PMC3813303 (Biochemistry, 2013)
